Values of other authors, collected in US8585707B2, “Continuous low irradiance photodynamic therapy method” (priority 2006, dated 2013).

Settings: after intravenous administration, attributed to extended half-life

Photofrin
time the level of drug in the tissue remains stable: over 36 hours
